“Also recorded” adds a separate entry of the source. Where two headings read alike, the source gives them in different places.

One may read the pKa as the pH at which an ionisable group is half protonated.

The conditions of series [1]: cited from earlier work.
For series [2] the following is noted: cited from earlier work; for intrinsic solubility: free laquinimod in water.
Series [3] is described as follows: Aqueous solubility of laquinimod and its salts. Format: physicochemical. As to conditions: for Aqueous solubility: water.
A short description of series [4]: Physical stability in glass vials at +5° C., air atmosphere. In kind it is physicochemical. As to conditions: for Sample appearance: glass vials, air atmosphere.
Series [5] in a line: Physical stability on exposure to atmospheric air at room temperature. Format: physicochemical.

On to `CCN(C(=O)c1c(O)c2c(Cl)cccc2n(C)c1=O)c1ccccc1` [laquinimod, N-ethyl-N-phenyl-1,2-dihydro-4-hydroxy-5-chloro-1-methyl-2-oxoquinoline-3-carboxamide], for which the pKa in series [1] is given as 4.2. Moreover, the values for the intrinsic solubility in series [2] and in series [2] (listed as Free laquinimod) were 0.007 mg/mL and “about 0.007 mg/ml”, respectively.
For the compound `C[N+](C)(C)CCO.[OH-]` [Choline hydroxide], the pKa in series [1] was 13.9.
As for `CCN(C(=O)c1c(O)c2c(Cl)cccc2n(C)c1=O)c1ccccc1` [Batch 15, laquinimod monoethanolamine], the Aqueous solubility came out at 625 mg/ml H2O in series [3]; 625 mg/mL in series [3] (depends on preparation method and form, listed as 4.4). Also, the Sample appearance entry is on record as “off-white powder” in series [4] (+5° C., 3 months) and “White powder” in series [4] (+5° C., time 0 month). In series [4] (sealed transparent glass vials at +5° C. for 3 months), the “Physical stability (physical change)” value was “Small physical change was observed; also recorded: color change was developed”. Besides, the Physical stability result in series [5] (RH=29-32%, T=18-20° C., 4 hrs) is recorded as “no change; remained white powder”; in series [5] (RH=29-32%, T=18-20° C., 25 hrs) it was “no change; remained white powder”.
Turning to `CCN(C(=O)c1c(O)c2c(Cl)cccc2n(C)c1=O)c1ccccc1` [laquinimod sodium, reference compound], the “solubility in water according to the USP” value in series [3] (USP descriptive term) is given as “freely soluble to soluble”. In series [2] (existing sodium salt, U.S. Pat. No. 7,589,208), the Aqueous solubility is 138 mg/mL.
As for `CCN(C(=O)c1c(O)c2c(Cl)cccc2n(C)c1=O)c1ccccc1` [Batch 1, laquinimod meglumine], the Aqueous solubility was found to be 1330 mg/ml H2O in series [3]; 1330 mg/mL in series [3] (depends on preparation method and form, listed as 1.1). The “Physical stability (physical change)” value was “no sign of physical change” in series [4] (+5° C., after 10 months of storage) and “No physical change was observed” in series [4] (sealed transparent glass vials at +5° C. for 6 months). The Sample appearance result was “White flowable powder” in series [4] (+5° C., 6 months); “White flowable powder” in series [4] (+5° C., last row of Table 7.A, time printed 0 month); “White flowable powder” in series [4] (+5° C., time 0 month). Besides, the Physical stability result in series [5] (RH=38%, open dish, 20 hours) was “No signs of aggregation or deliquescence were observed”.

The values are drawn from patent publication US8975279B2, “Amine salts of laquinimod” (Teva Pharmaceutical Industries, Ltd., priority 2012, dated 2015).
